Test results published in the NIST ThermoML archive (doi:10.1021/je700072a).
± gives the expanded uncertainty stated by the source.

Assays:
[1] = Crystal; visual observation
[2] = molar heat capacity at constant pressure; settings: 101.33 kPa, Crystal

NC[C@H]1CC[C@H](C(=O)O)CC1 [trans-4-(aminomethyl)cyclohexanecarboxylic acid]
Settings | Normal melting temperature [°C]
[1] | 249.00 ± 4

[2]
Settings | molar heat capacity at constant pressure [J/K/mol]
82.12 K | 74.7 ± 1.5
86.25 K | 76.89 ± 1.5
90.28 K | 79.76 ± 1.6
94.31 K | 82.4 ± 1.6
98.35 K | 85 ± 1.7
102.41 K | 87.81 ± 1.7
106.49 K | 90.49 ± 1.7
110.6 K | 93.05 ± 1.8
114.62 K | 95.54 ± 1.8
118.68 K | 98.24 ± 1.8
122.78 K | 100.67 ± 1.9
126.81 K | 103.29 ± 1.9
130.9 K | 105.64 ± 1.9
135.04 K | 107.88 ± 2
139.12 K | 109.84 ± 2
143.27 K | 111.62 ± 2
147.47 K | 113.47 ± 2
151.62 K | 115.25 ± 2
155.73 K | 116.97 ± 2.1
159.91 K | 118.97 ± 2.1
164.15 K | 120.5 ± 2.1
168.36 K | 122.02 ± 2.1
172.53 K | 123.18 ± 2.1
176.78 K | 124.4 ± 2.2
181.09 K | 125.84 ± 2.2
185.38 K | 127.19 ± 2.2
189.63 K | 128.43 ± 2.2
193.83 K | 129.9 ± 2.2
198.09 K | 130.84 ± 2.2
202.43 K | 132.24 ± 2.3
206.76 K | 133.38 ± 2.3
211.06 K | 134.92 ± 2.3
215.33 K | 136.11 ± 2.3
219.57 K | 138 ± 2.3
223.88 K | 139.22 ± 2.4
228.26 K | 141.19 ± 2.4
232.59 K | 143.17 ± 2.4
236.84 K | 145.38 ± 2.4
240.99 K | 147.84 ± 2.5
245.16 K | 149.97 ± 2.5
249.36 K | 153.29 ± 2.5
253.5 K | 156.23 ± 2.6
257.64 K | 159.56 ± 2.6
261.72 K | 162.66 ± 2.6
265.9 K | 166 ± 2.7
270.14 K | 168.94 ± 2.7
274.32 K | 172.81 ± 2.8
278.44 K | 176.02 ± 2.8
282.51 K | 180.3 ± 2.9
286.62 K | 184.12 ± 2.9
290.75 K | 187.46 ± 2.9
294.85 K | 190.4 ± 3
298.94 K | 194.15 ± 3
303.01 K | 197.05 ± 3.1
307.17 K | 200.02 ± 3.1
311.37 K | 202.88 ± 3.1
315.53 K | 205.54 ± 3.2
319.67 K | 209.32 ± 3.2
323.79 K | 212.66 ± 3.3
327.88 K | 215.68 ± 3.3
331.96 K | 219.46 ± 3.3
336.09 K | 222.93 ± 3.4
340.27 K | 226.39 ± 3.4
344.44 K | 229.61 ± 3.5
348.6 K | 233.13 ± 3.5
352.73 K | 236.69 ± 3.5
356.85 K | 239.65 ± 3.6
360.96 K | 242.26 ± 3.6
365.13 K | 245.3 ± 3.7
369.37 K | 248.57 ± 3.7
373.63 K | 252.41 ± 3.8
377.94 K | 254.98 ± 3.8
